# Entries after “also recorded” stand apart in the source; their conditions may differ.
# Legend:
# serum ionized calcium [1] = experiment: serum ionized Ca2+ in rats; assay type: in vivo, rat; settings: NPS R-467 single oral dose, 3 hours
# Description: Compounds shown to activate the bovine parathyroid cell calcium receptor in vitro were tested for hypocalcemic activity in vivo. Male Sprague-Dawley rats (200 g) were maintained on a low calcium diet for one week prior to receiving test substance or vehicle as control. Blood was collected from the tail vein three hours after the intra-peritoneal administration of NPS 467. […] Serum total calcium, albumin and phosphate were measured by techniques well known in the art.
# Rats (male, Sprague-Dawley, 250-300 g) were fed standard rat chow and fasted overnight prior to the experiment. NPS R-467 was suspended in corn oil and administered as a single oral dose through a gavage needle. Three hours later a sample of blood was taken from the tail vein and assessed for ionized Ca^2+ levels.
# serum ionized calcium [2] = experiment: serum ionized Ca2+ in parathyroidectomized rats; assay type: in vivo, rat; settings: NPS R-467 10 mg/kg i.p., 6 hours; NPS R-568 oral
# Excerpt: To determine the primary target tissue upon which NPS R-467 acts to cause a hypocalcemic response, the parathyroid glands in rats were surgically removed. Animals receiving a total parathyroidectomy become hypocalcemic and are largely dependent upon dietary calcium to maintain serum Ca^2+ homeostasis.
# C-cell calcium receptor = molecular target: T1, C-cell calcium receptor (Rattus norvegicus, UniProt P48442); assay type: cell-based; settings: Table 6; rMTC 6-23 cells, fura-2
# T1 construct: Neoplastic C-cells derived from a rat medullary thyroid carcinoma (rMTC 6-23); host or cells: rMTC 6-23 cells
# T1 sequence (P48442 20-1079): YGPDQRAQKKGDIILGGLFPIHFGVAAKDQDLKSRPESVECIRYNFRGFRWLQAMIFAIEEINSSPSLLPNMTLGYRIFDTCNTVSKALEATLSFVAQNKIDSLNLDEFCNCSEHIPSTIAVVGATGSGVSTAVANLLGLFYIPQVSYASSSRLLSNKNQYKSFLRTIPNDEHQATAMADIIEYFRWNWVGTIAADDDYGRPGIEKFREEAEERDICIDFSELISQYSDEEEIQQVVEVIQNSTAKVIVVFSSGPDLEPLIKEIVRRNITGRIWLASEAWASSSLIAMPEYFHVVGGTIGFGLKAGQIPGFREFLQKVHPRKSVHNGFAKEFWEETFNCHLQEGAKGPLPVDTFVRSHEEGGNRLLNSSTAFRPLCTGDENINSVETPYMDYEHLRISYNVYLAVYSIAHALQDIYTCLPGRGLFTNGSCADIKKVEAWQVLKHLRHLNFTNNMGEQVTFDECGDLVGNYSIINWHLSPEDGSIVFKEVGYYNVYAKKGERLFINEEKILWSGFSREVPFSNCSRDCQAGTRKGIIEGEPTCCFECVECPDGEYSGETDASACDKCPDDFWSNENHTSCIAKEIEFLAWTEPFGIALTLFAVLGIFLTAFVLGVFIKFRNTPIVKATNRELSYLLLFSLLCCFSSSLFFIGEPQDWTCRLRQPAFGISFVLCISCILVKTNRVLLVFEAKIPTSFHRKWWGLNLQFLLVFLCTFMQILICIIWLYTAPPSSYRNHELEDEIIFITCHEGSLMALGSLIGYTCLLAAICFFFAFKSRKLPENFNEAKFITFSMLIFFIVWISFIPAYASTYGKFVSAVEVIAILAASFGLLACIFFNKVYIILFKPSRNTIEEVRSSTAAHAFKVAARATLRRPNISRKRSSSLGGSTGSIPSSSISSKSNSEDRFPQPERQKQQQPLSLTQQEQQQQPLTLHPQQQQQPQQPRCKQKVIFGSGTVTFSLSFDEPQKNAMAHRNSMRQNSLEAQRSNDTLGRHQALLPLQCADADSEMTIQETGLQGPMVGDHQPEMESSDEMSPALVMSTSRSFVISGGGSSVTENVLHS
# Description: To assess the effects of molecular polycations on C-cells, a neoplastic cell line, derived from a rat medullary thyroid carcinoma (rMTC 6-23 cells) was used.
# [3] = molecular target: T2, human parathyroid cell calcium receptor (Homo sapiens, UniProt P41180); experiment: Cl- current in Xenopus oocytes expressing human parathyroid cell calcium receptor; assay type: cell-based
# T2 construct: T7 cRNA injected into Xenopus oocytes
# T2 sequence (P41180 with tags, fused parts or gaps INS536PLTFVLSVLQ/Q926R/E1011Q): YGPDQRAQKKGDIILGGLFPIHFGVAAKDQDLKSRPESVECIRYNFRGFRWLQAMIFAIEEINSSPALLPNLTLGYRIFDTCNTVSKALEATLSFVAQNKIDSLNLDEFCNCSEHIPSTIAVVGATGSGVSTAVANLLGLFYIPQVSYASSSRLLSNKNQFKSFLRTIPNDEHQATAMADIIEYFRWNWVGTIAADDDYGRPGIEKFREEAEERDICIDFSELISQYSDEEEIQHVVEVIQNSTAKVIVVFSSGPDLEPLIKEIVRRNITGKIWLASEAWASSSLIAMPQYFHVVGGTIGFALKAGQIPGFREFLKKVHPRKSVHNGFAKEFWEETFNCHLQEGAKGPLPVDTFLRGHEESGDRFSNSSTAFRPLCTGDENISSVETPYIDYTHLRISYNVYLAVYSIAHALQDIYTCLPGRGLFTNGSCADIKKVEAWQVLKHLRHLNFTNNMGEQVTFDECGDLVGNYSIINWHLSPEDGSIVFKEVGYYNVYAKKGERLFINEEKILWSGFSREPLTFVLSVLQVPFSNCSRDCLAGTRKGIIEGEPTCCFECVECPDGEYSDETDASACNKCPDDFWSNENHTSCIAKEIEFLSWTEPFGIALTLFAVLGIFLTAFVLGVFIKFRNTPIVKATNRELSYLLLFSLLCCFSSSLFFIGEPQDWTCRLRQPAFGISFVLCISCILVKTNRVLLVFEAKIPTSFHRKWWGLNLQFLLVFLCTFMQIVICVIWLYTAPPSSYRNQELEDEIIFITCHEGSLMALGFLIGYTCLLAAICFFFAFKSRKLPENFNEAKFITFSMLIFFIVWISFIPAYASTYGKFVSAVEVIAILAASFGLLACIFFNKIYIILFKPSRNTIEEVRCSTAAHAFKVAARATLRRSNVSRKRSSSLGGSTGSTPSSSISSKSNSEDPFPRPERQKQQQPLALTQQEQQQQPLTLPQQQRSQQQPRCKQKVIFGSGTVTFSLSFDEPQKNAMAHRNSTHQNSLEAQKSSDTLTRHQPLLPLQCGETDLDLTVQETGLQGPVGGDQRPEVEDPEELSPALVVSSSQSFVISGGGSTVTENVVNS
# Description: Representative cDNA inserts for both size classes were subcloned into the plasmid vector pBluescript SK. Linearization followed by in vitro transcription using T7 RNA polymerase produced cRNA transcripts. The cRNA transcripts were injected into Xenopus oocytes (150 ng/μl RNA; 50 nl/oocyte) for functional analysis. Following incubation periods of 2-4 days, the oocytes were assayed for the presence of functional calcium receptors. Both clone types gave rise to functional calcium receptors as assessed by the stimulation of calcium-activated chloride currents upon addition of appropriate calcium receptor agonists. […] Thus, both clones encode a functional, human parathyroid cell calcium receptor.
# Xenopus oocytes were injected with pHuPCaR 5.2, the 5.2 Kb cDNA encoding a parathyroid cell calcium receptor derived from a human parathyroid cell adenoma. (See Example 27.) After two to three days, Cl^- currents were measured in the oocytes using a two-electrode voltage clamp.
# [4] = test system: parathyroid cell calcium receptor; experiment: Cl- current in Xenopus oocytes injected with bovine parathyroid cell mRNA; assay type: cell-based; settings: 30 μM; oocytes injected with parathyroid cell mRNA
# Description: Following incubation, an oocyte was placed into a 100-μl plastic chamber and superfused with MBS at a flow rate of 0.5 ml/min using a peristaltic pump. Test molecules or inorganic polycations were added by rapidly moving the tubing into different buffers. Recording and current-passing electrodes were constructed from thin-wall capillary tubing pulled to a resistance of 1-3 Mohms and filled with 3 M KCl. […] Currents were recorded directly onto a strip chart recorder.
# [5] = test system: human parathyroid calcium receptor; experiment: intracellular calcium in HEK293 cells stably transfected with human calcium receptor; assay type: cell-based; settings: Ca2+ 10 mM; Mg2+ 20 mM; HuPCaR 5.2
# Description: Different cells were tested for response to pure stereoisomers and racemic mixtures. […] Intracellular Ca^2+ was monitored using a fluorimeter. Each point on the graph represents the peak response (highest concentration of intracellular calcium achieved) to the addition of the indicated concentration of the indicated compound.
# Cells obtained from the pool of hygromycin selected HEK293 cells transfected with Cep4B containing the HuPCaR 5.2 insert were plated on collagen coated Aklar squares which had been placed into individual wells of 12-well tissue culture plates. Two to six days later, medium was removed and the cells washed with balanced salt solution and 1 ml of buffer containing 1 μM fura2-AM, 1 mM CaCl2 and 0.1% BSA and 1 mM CaCl2. Measurements of fluorescence in response to calcium receptor agonists were performed at 37° C. in a spectrofluorimeter using excitation and emission wavelengths of 340 and 510 nm, respectively. For signal calibration, Fmax was determined after addition of ionomycin (40 μM) and the apparent Fmin was determined by addition of 0.3 M EGTA, 2.5 M Tris-HCl; pH 10.
# Additional clonal isolates of HEK 293 cells transfected with pHuPCaR4.0 sequence were obtained. These were tested for responsiveness to calcimimetics as described above except that the cells were tested while in suspension. Similar positive results were obtained (FIG. 28b).
structure (smiles),measurement,setting,value
"COc1cccc([C@@H](C)NCCCc2ccccc2)c1 [NPS R-467, (R)-(+)-N-(3-phenylpropyl)-α-methyl-3-methoxybenzylamine]","effect on serum ionized Ca2+, oral",serum ionized calcium [1],lowers serum ionized calcium; also recorded: dose-dependent reduction in serum levels of ionized Ca^2+
same,effect on serum ionized Ca2+ in parathyroidectomized rats,serum ionized calcium [2],did not cause any change in serum ionized Ca^2+
same,EC50,C-cell calcium receptor,2.2 µM
same,activation of oocyte-expressed receptor,[3],activated the oocyte-expressed receptor at about the same concentrations
same,effect on Cl- current,[4],rapid increase in Cl^-
same,increase in intracellular calcium,[5],Robust increases in intracellular calcium
